The values that follow come from patent publication US20230190887A1, “TARGETING G3BP AGGREGATION TO PREVENT NEURODEGENERATION” (priority 2019, published 2023).

Assay [1] concerns TIA1, G3BP1 and TDP43 granules in E12.5 motor neurons. The assay can be described thus: Stress granule protein granules in neurites of arsenite-treated motor neurons. It is filed as cell-based, mouse. Conditions: sodium arsenite 0.5 mM 30 minutes, then 10 μM peptide; for number of flag-TDP43 granules greater than 2 μm^2 per 100 μm of neurite: WT and ALS mutant flag-TDP43; for number of large TIA1-GFP granules (>2 μm^2) in neurites: WT and mutant TIA1-GFP. The text has this:
To further evaluate whether mutant TIA1 and TDP43 protein aggregates are affected by G3BP1 190-208 peptide, the inventors expressed the mutant proteins in embryonic motor neurons and assessed granules formed in neurites with or without arsenite treatment either in the presence of G3BP1 190-208 or control 168-189 peptide.
FIG. 6: Cell permeable G3BP1 190-208 peptide decreases granules formed by endogenous TIA1 and TDP43 and exogenous TDP43 and TIA1 mutants in motor neurons after sodium arsenite exposure. (A) Embryonic motor neurons isolated from E12.5 mouse embryos were exposed to sodium arsenite (0.5 mM) for 30 minutes and then treated with 10 μM 190- 208 or […] peptide. After fixation endogenous TIA1 was visualized by immunostaining. The number of TIA1 granules greater than 2 μm^2 per 100 μm of neurite were measured. (B) E12.5 motor neurons were treated as described in (A) and immunostaining was used to detect endogenous G3BP1 protein. The number of G3BP1 granules greater than 2 μm^2 per 100 μm of neurite were measured. […] (C) E12.5 motor neurons expressing TIA1-GFT or ALS/FTD-associated mutants TIA1-A381T, TIA1-E384K were treated with sodium arsenite (0.5 mM) for 30 minutes followed by treatment with either 10 μM 190-208 G3BP1 or 168-189 control peptide. The number of cells containing TIA1-GFP puncta were measured 2 μm^2 per 100 μm of neurite and results are reported relative to non-treated controls. The number of TIA1-GFP granules in neurites decreased for WT and ALS/FTD mutants after treatment with 190-208 G3BP1 as compared to the 168-189 control peptide treated cells. (I)) E12.5 motor neurons expressing flag-tagged wildtype TDP43 or ALS-associated mutants TDP43-M337V and TDP43-Q331.K were treated with sodium arsenite (0.5 mM) for 30 minutes followed by treatment with either 10 μM 190-208 G3BP1 or 168189 control peptide. Flag-TDP43 was detected by immunostaining using the anti-flag-antibody. The number of flag-TDP43 granules greater than 2 μm^2 were measured per 100 μm of neurite and the results are reported relative to non-treated controls. The number of Flag-TDP43 granules in neurites were decreased after treatment with 190-208 G3BP1 peptide as compared to the 168-189 control peptide in both WT and ALS/FTD mutants expressing cells. ([…] over 3 cultures; by two-way ANOVA with Tukey HSD post-hoc),

In assay [2] the test system is axonal protein synthesis in DRG neurons. The assay is described as follows: Puromycinylation assay of axonal protein synthesis. It is filed as cell-based, rat. The following applies: compared to untreated and 168-189 peptide-treated cultures. As for the experimental part:
Puromycinylation assay. To visualize newly synthesized proteins in cultured neurons, the inventors used the Click-iT® Plus OPP Protein Synthesis Assay Kit per manufacturer's instructions (Invitrogen/Life Technologies). Briefly, 3 DIV cultures were incubated with 20 μM0-propargyl-puromycin (OPP) for 30 min at 37° C. OPP labeled proteins were detected by crosslinking with Alexa Fluor-594 picolyl azide molecule. Coverslips were then mounted with Prolong Gold Antifade (Invitrogen) and imaged with Leica DMI6000 epifluorescent microscope as above. ImageJ was used to quantify the Puromycinylation signals in distal axons and cell bodies.

Regarding “YGNKKNNNQNNN-VVEPEPEPEPEPEPEPVSE [G3BP1 190-208 peptide]”, the “number of flag-TDP43 granules greater than 2 μm^2 per 100 μm of neurite” value is “reversed” in assay [1] and “decreased” in assay [1] (listed as 190-208 G3BP1 peptide). The “number of large TIA1-GFP granules (>2 μm^2) in neurites” value in assay [1] is recorded as “decrease in the number of large granules”; in assay [1] (listed as 190-208 G3BP1) it was “decreased”. Also, the “number of endogenous TIA1 and G3BP1 granules greater than 2 μm^2 per 100 μm of neurite” value was “reverses the increase number of these larger granules” in assay [1]; “significantly decreased levels of TIA1 and G3BP1 granules” in assay [1] (listed as 190-208). The figures for the “puromycin incorporation in DRG axons (axonal protein synthesis)” value in assay [2] and in assay [2] (listed as 190-208 peptide) were “significantly increased puromycin incorporation” and “significant increase in axonal protein synthesis”, respectively.
